Results: patent US9650390B2, “Water-soluble taxane derivatives and uses thereof” (priority 2014, dated 2017)
Like-named read-outs stand apart in the source and are kept apart here.

Experiments:
[1] = tested on: human prostate cancer PC-3; assay: Inhibitory activity of docetaxel derivatives on subcutaneously xenografted tumor PC-3 in nude mice; format: in vivo; settings: 14 mg/kg, D0 IV
Source text: Purpose: to evaluate and compare the inhibitory activity of the water soluble docetaxel derivatives and docetaxel on subcutaneously xenografted tumor of human prostate cancer PC-3 in nude mice
Human prostate cancer PC-3 cells were subcutaneously inoculated into nude mice. After the tumor volume reached 100-150 mm^3, the animals were randomly divided into several groups, and administered with the water soluble docetaxel derivatives of the following formula and docetaxel, respectively once on the same day (D0). The tumor volume was measured 2-3 times per week, the animals were weighed and the data were recorded until day 20 (D20) after grouping.
The tumor volume (V) was calculated according to the equation: V=½×a×b^2, wherein a and b represent the length and the width, respectively.
T/C (%)=(T−T0)/(C−C0)×100, wherein T and C represent the tumor volume at the end of the experiment; and T0 and C0 represent the tumor volume at the beginning of the experiment.

[2] = SD rats, 5 mg/kg intravenous, 5 min after administration, LC-MS
Method: After 5 min of administration, 0.3 ml of venous blood was taken from the retrobulbar venous plexus of the rats, placed in heparinized tubes, and centrifuged at 11,000 rpm for 5 min. Plasma was separated, and the concentrations of the compounds in the plasma were determined by liquid chromatography □-mass spectrometry.

[3] = tested on: human non-small cell lung cancer NCI-H446; assay: Inhibitory activity of larotaxel and tesetaxel derivatives on subcutaneously xenografted tumor NCI-H446 in nude mice; settings: D0 IV; for T/C (%) D20 / Tumor volume (mm^3) (D20) / Tumor inhibitory percent (%) D20 / Tumor volume (mm^3) (D0): NCI-H446 xenograft in nude mice; for Tumor inhibitory percent (%) D20: P = 0.000 vs control; for Tumor volume (mm^3) (D0): baseline at grouping (D0); for Weight change (%) D5: nude mice
Source text: Human […] NCI-H446 cells were subcutaneously inoculated into nude mice.

[4] = In vitro dissociation in blood plasma of rat; format: in vitro ADME, SD rats; settings: fresh SD rat plasma, 37° C.; for Sampling time/Dissociation percent (%) 2 min: 2 min incubation; for Sampling time/Dissociation percent (%) 5 min: 5 min incubation; for Sampling time/Dissociation percent (%) 10 min: 10 min incubation
Method: The obtained water soluble taxane derivatives of the following formulae were formulated as 0.2 mg/ml aqueous solutions. […] After 2 min, 5 min and 10 min of incubation, 0.2 ml of solutions were respectively taken from each of the samples, and added to acetonitrile (0.4 ml) cooled to −20° C. for precipitation of protein.

[5] = In vitro dissociation in blood plasma of rabbit; format: in vitro ADME, New Zealand white rabbits; settings: fresh New Zealand white rabbit plasma, 37° C.
Method: The obtained water soluble taxane derivatives of the following formulae were formulated as 0.2 mg/ml aqueous solutions. […]

[6] = In vivo metabolic test of the water soluble paclitaxel derivatives in rats; settings: SD rats, 5 mg/kg intravenous, 5 min after administration, LC-MS
Method: After 5 min of administration, 0.3 ml of venous blood was taken from the retrobulbar venous plexus of the rats, placed in heparinized tubes, and centrifuged at 11.000 rpm for 5 min. Blood plasma was separated, and the concentrations of the compounds in the blood plasma were determined by liquid chromatography-mass spectrometry.

[7] = D20, PC-3 xenograft in nude mice

SMILES	mean concentration of docetaxel in the blood plasma [2] [ng/mL]	T/C (%) D20 ([3]; 12 mg/kg) [%]	Tumor volume (mm^3) (D20) ([3]; 12 mg/kg)	Tumor inhibitory percent (%) D20 ([3]; 12 mg/kg) [%]	Tumor volume (mm^3) (D0) ([3]; 12 mg/kg)	Sampling time/Dissociation percent (%) 2 min [4] [%]	Sampling time/Dissociation percent (%) 5 min [4] [%]	Sampling time/Dissociation percent (%) 10 min [4] [%]	Sampling time/Dissociation percent (%) 2 min [5] [%]	Sampling time/Dissociation percent (%) 5 min [5] [%]	Sampling time/Dissociation percent (%) 10 min [5] [%]	other results
CC(=O)O[C@@]12CO[C@@H]1C[C@H](O)[C@@]1(C)C(=O)[C@H](O)C3=C(C)[C@@H](OC(=O)[C@H](O)[C@@H](NC(=O)OC(C)(C)C)c4ccccc4)C[C@@](O)([C@@H](OC(=O)c4ccccc4)[C@H]21)C3(C)C [docetaxel, reference compound]	769											Weight change (%) D6 ([1]; D6, nude mice): −12.3%; T/C (%) D20 [1, 7]: −27%; Tumor volume (mm^3) (D20) [1, 7]: 81.4 ± 25.1 mm^3; Tumor inhibitory percent (%) D20 ([1]; D20, PC-3 xenograft in nude mice, P = 0.000 vs control): 127%; Tumor volume (mm^3) (D0) ([1]; baseline at grouping (D0), PC-3 xenograft in nude mice): 111.5 ± 1.3 mm^3
CC(=O)O[C@@]12CO[C@@H]1CC[C@@]1(C)[C@@H]3O[C@H](CN(C)C)O[C@@H]3C3=C(C)[C@@H](OC(=O)[C@H](OC(=O)[C@H](F)CCN(C)C)[C@@H](NC(=O)OC(C)(C)C)c4ncccc4F)C[C@@](O)([C@@H](OC(=O)c4ccccc4)[C@@H]12)C3(C)C.Cl [Compound C43, 2′-O-[4-N,N-dimethylamino-2(R)-fluorobutyryl]tesetaxel hydrochloride]		−61	31.8 ± 11.1	153	111.5 ± 2.2							
CC(=O)O[C@@]12CO[C@@H]1C[C@H](O)[C@@]1(C)C(=O)[C@H](O)C3=C(C)[C@@H](OC(=O)[C@H](OC(=O)[C@@H](F)CCN(C)C)[C@@H](NC(=O)OC(C)(C)C)c4ccccc4)C[C@@](O)([C@@H](OC(=O)c4ccccc4)[C@H]21)C3(C)C.Cl [Compound 05, 2′-O-[4-N,N-dimethylamino-2(S)-fluorobutyryl]docetaxel hydrochloride]	1387					56.4	91.1	100	79.3	91.8	100	detection of the administered compound in the blood plasma [2]: cannot be detected
CC(=O)OC12COC1CC(O)C1(C)C(=O)C(O)C3=C(C)C(OC(=O)C(OC(=O)C(F)CCN(C)C)C(NC(=O)OC(C)(C)C)c4ccccc4)CC(O)(C(OC(=O)c4ccccc4)C21)C3(C)C.Cl [Compound 04, 2′-O-[4-N,N-dimethylamino-2(R)-fluorobutyryl]docetaxel hydrochloride]	1506					58.6	92.6	100	80.2	93.5	100	detection of the administered compound in the blood plasma [2]: cannot be detected
CC(=O)O[C@@]12CO[C@@H]1CC[C@@]1(C)[C@@H]3O[C@H](CN(C)C)O[C@@H]3C3=C(C)[C@@H](OC(=O)[C@H](O)[C@@H](NC(=O)OC(C)(C)C)c4ncccc4F)C[C@@](O)([C@@H](OC(=O)c4ccccc4)[C@@H]12)C3(C)C [tesetaxel, reference compound]												T/C (%) D20 ([3]; 8 mg/kg): −58%; Tumor volume (mm^3) (D20) ([3]; 8 mg/kg): 33.7 ± 12.1 mm^3; Tumor inhibitory percent (%) D20 ([3]; 8 mg/kg): 146%; Tumor volume (mm^3) (D0) ([3]; 8 mg/kg): 112.8 ± 2.2 mm^3
CC(=O)O[C@H]1C(=O)[C@@]2(C)[C@H]([C@H](OC(=O)c3ccccc3)[C@]3(O)C[C@H](OC(=O)[C@H](OC(=O)C(F)CCN(C)C)[C@@H](NC(=O)c4ccccc4)c4ccccc4)C(C)=C1C3(C)C)[C@]1(OC(C)=O)CO[C@@H]1C[C@@H]2O.Cl (stereo partly drawn) [Compound 03, 2′-O-[4-N,N-dimethylamino-2(R,S)-fluorobutyryl]paclitaxel hydrochloride]						61.8	93.1	100	75.7	93.5	100	detection of the administered compound in the blood plasma [6]: cannot be detected; mean concentration of paclitaxel in the blood plasma [6]: 1825 ng/mL
CCN(C)CCC(F)C(=O)OC(C(=O)OC1CC2(O)C(OC(=O)c3ccccc3)C3C4(OC(C)=O)COC4CC4CC43C(=O)C(OC(C)=O)C(=C1C)C2(C)C)C(NC(=O)OC(C)(C)C)c1ccccc1.Cl [Compound C40, 2′-O-[4-N-methyl-N-ethylamino-2(R,S)-fluorobutyryl]larotaxel hydrochloride]		−51	43.2 ± 12.7	122	112.4 ± 1.8							Weight change (%) D5 ([3]; 12 mg/kg): −9.1%
CC(=O)OC1C(=O)C23CC2CC2OCC2(OC(C)=O)C3C(OC(=O)c2ccccc2)C2(O)CC(OC(=O)C(OC(=O)C(CCN(C)C(C)C)C(F)(F)F)C(NC(=O)OC(C)(C)C)c3ccccc3)C(C)=C1C2(C)C.O=C(O)C=CC(=O)O (mixture of isomers) [Compound C41, 2′-O-[4-N-methyl-N-isopropylamino-2(R,S)-2-trifluoromethylbutyryl]larotaxel maleate]		−34	51.7 ± 11.9	67	109.8 ± 2.9							Weight change (%) D5 ([3]; 12 mg/kg): −10.5%
CC(=O)O[C@H]1C(=O)[C@@]2(C)[C@H]([C@H](OC(=O)c3ccccc3)[C@]3(O)C[C@H](OC(=O)[C@H](OC(=O)[C@@H](F)CCN(C)C)[C@@H](NC(=O)c4ccccc4)c4ccccc4)C(C)=C1C3(C)C)[C@]1(OC(C)=O)CO[C@@H]1C[C@@H]2O.Cl [Compound 02, 2′-O-[4-N,N-dimethylamino-2(S)-fluorobutyryl]paclitaxel hydrochloride]						59.8	95.6	100	68.2	97.5	100	detection of the administered compound in the blood plasma [6]: cannot be detected; mean concentration of paclitaxel in the blood plasma [6]: 1637 ng/mL
CC(=O)O[C@H]1C(=O)[C@]23C[C@H]2C[C@H]2OC[C@@]2(OC(C)=O)[C@H]3[C@H](OC(=O)c2ccccc2)[C@]2(O)C[C@H](OC(=O)[C@H](OC(=O)[C@H](F)CCN(C)C)[C@@H](NC(=O)OC(C)(C)C)c3ccccc3)C(C)=C1C2(C)C.Cl [Compound C39, 2′-O-[4-N,N-dimethylamino-2(R)-fluorobutyryl]larotaxel hydrochloride]		−62	34.9 ± 13.3	148	111.5 ± 2.2							Weight change (%) D5 ([3]; 12 mg/kg): −8.5%
CC(=O)O[C@@]12CO[C@@H]1C[C@H](O)[C@@]1(C)C(=O)[C@H](O)C3=C(C)[C@@H](OC(=O)[C@H](OC(=O)C(F)CCN(C)C)[C@@H](NC(=O)OC(C)(C)C)c4ccccc4)C[C@@](O)([C@@H](OC(=O)c4ccccc4)[C@H]21)C3(C)C.Cl (stereo partly drawn) [Compound 06, 2′-O-[4-N,N-dimethylamino-2(R,S)-fluorobutyryl]docetaxel hydrochloride]	1621					56.4	91.1	100	75.6	98.6	100	detection of the administered compound in the blood plasma [2]: cannot be detected
CC(=O)OC12COC1CCC1(C)C3OC(CN(C)C)OC3C3=C(C)C(OC(=O)C(OC(=O)C(F)CC(C)N4CCCC4)C(NC(=O)OC(C)(C)C)c4ncccc4F)CC(O)(C(OC(=O)c4ccccc4)C12)C3(C)C.O=S(=O)(O)O (mixture of isomers) [Compound C46, 2′-O-[4-(pyrrolidin-1-yl)amino-2(R,S)-fluorovaleryl]tesetaxel sulfate]		−23	61.2 ± 14.2	58	111.7 ± 2.8							
CC(=O)O[C@H]1C(=O)[C@]23C[C@H]2C[C@H]2OC[C@@]2(OC(C)=O)[C@H]3[C@H](OC(=O)c2ccccc2)[C@]2(O)C[C@H](OC(=O)[C@H](O)[C@@H](NC(=O)OC(C)(C)C)c3ccccc3)C(C)=C1C2(C)C [larotaxel, reference compound]												Weight change (%) D5 ([3]; 7 mg/kg): −8.4%; T/C (%) D20 ([3]; 7 mg/kg): −64%; Tumor volume (mm^3) (D20) ([3]; 7 mg/kg): 33.3 ± 12.4 mm^3; Tumor inhibitory percent (%) D20 ([3]; 7 mg/kg): 153%; Tumor volume (mm^3) (D0) ([3]; 7 mg/kg): 110.9 ± 2.4 mm^3
